Patent publication US20240041042A1, “1-(PYRIDYL)-5-AZINYLPYRAZOLE DERIVATIVES, AND THEIR USE FOR CONTROL OF UNDESIRED PLANT GROWTH” (Bayer Aktiengesellschaft, priority 2020, published 2024)
Read-outs that look alike come from different tables or passages of the source. Blank lines part the entries; values can stand above or below the compound they belong to.

Experiments:
Assay type in all cases: in vivo
[1] = system: Alopecurus myosuroides (ALOMY); test: Post-emergence herbicidal action against ALOMY; conditions: visual rating about 3 weeks after treatment vs untreated controls (100% = plants have died, 0% = like control plants)
How it was run: (§1)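 Rates were 320 g/ha or below, applied as aqueous WP/EC spray with 0.5% additive (600 l/ha) onto one-leaf-stage plants. About 3 weeks later in the greenhouse, damage was scored visually against untreated plants on a 0–100% scale, where 100% means plants died.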

[2] = system: Avena fatua (AVEFA); test: Post-emergence herbicidal action against AVEFA; conditions: visual rating about 3 weeks after treatment
How it was run: as §1

[3] = system: Digitaria sanguinalis (DIGSA); test: Post-emergence herbicidal action against DIGSA; conditions: visual rating about 3 weeks after treatment
Description: Seeds of monocotyledonous and dicotyledonous weeds and crop plants are placed in sandy loam in plastic or organic planting pots, covered with soil and cultivated in a greenhouse under controlled growth conditions. 2 to 3 weeks after sowing, the test plants are treated at the one-leaf stage. The compounds of the invention, formulated in the form of wettable powders (WP) or as emulsion concentrates (EC), are then sprayed onto the green parts of the plants as aqueous suspension or emulsion with addition of 0.5% additive at a water application rate of 600 l/ha (converted). After the test plants have been kept in the greenhouse under optimum growth conditions for about 3 weeks, the activity of the preparations is rated visually in comparison to untreated controls. For example, 100% activity=the plants have died, 0% activity=like control plants.
Tables B1 to B13 below show the effects of selected compounds of the general formula (I) according to Table 1 on various harmful plants and at an application rate corresponding to 320 g/ha or lower, which were obtained by the experimental procedure mentioned above. The appendices “a”, “b” and “c” give differentiation by dosage used with otherwise the same harmful plants tested.

[4] = system: Echinochloa crus-galli (ECHCG); test: Post-emergence herbicidal action against ECHCG
How it was run: as §1

[5] = system: Lolium rigidum (LOLRI); test: Post-emergence herbicidal action against LOLRI
How it was run: as §1

[6] = system: Matricaria inodora (MATIN); test: Post-emergence herbicidal action against MATIN
How it was run: as §1

[7] = system: Pharbitis purpurea (PHBPU); test: Post-emergence herbicidal action against PHBPU
How it was run: as §1

[8] = system: Setaria viridis (SETVI); test: Post-emergence herbicidal action against SETVI
How it was run: as §1

[9] = system: Verconica persica (VERPE); test: Post-emergence herbicidal action against VERPE
How it was run: as §1

[10] = system: Viola tricolor (VIOTR); test: Post-emergence herbicidal action against VIOTR
How it was run: as §1

[11] = system: Oryza sativa (ORYSA); conditions: crop plant compatibility
How it was run: (§2)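 Greenhouse crops in sandy loam sprayed post-emergence at the one-leaf stage, 2–3 weeks after sowing, with WP or EC formulations in water plus 0.5% additive at 600 l/ha. Damage rated visually about 3 weeks later versus untreated controls (0% = like control, 100% = dead); suffixes a–c denote different doses.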

[12] = system: Zea mays (ZEAMX); conditions: for Post-emergence action against ZEAMX in % (crop plant compatibility): 20 g/ha, effect in comparison to untreated controls; for Post-emergence action against ZEAMX in %: crop plant compatibility, effect vs untreated controls
How it was run: as §2

[13] = system: Abutilon theophrasti (ABUTH); test: Post-emergence herbicidal action against ABUTH; conditions: visual rating about 3 weeks after treatment vs untreated controls (100% = plants have died, 0% = like control plants)
How it was run: as §1

[14] = system: Amaranthus retroflexus (AMARE); test: Post-emergence herbicidal action against AMARE
How it was run: as §1

[15] = system: Polygonum convolvulus (POLCO); test: Post-emergence herbicidal action against POLCO
How it was run: as §1

[16] = 20 g/ha, effect vs untreated controls
[17] = 80 g/ha, effect in comparison to untreated controls

- Post-emergence action against ORYSA in % [11, 16]: 0%
- Post-emergence action against ORYSA in % [11, 17]: 10%
- Post-emergence action against ZEAMX in % (crop plant compatibility) [12]: 0%
- Post-emergence action against ZEAMX in % ([12]; 80 g/ha): 0%
- Post-emergence action against ZEAMX in % ([12]; 320 g/ha): 20%
Structure (SMILES): CCOC(=O)[C@@H](C)Oc1nn(-c2ncccc2F)c(-c2ccnc(F)c2)c1Br [Example I-133]
- Post-emergence action against ABUTH in % ([13]; 320 g/ha): 80%
- Post-emergence action against ALOMY in % ([1]; 320 g/ha): 90%
- Post-emergence action against AVEFA in % ([2]; 320 g/ha): 80%
- Post-emergence action against DIGSA in % ([3]; 320 g/ha): 80%
- Post-emergence action against ECHCG in % ([4]; dosage 320 g/ha): 90%
- Post-emergence action against LOLRI in % ([5]; dosage 320 g/ha): 90%
- Post-emergence action against PHBPU in % ([7]; dosage 320 g/ha): 80%
- Post-emergence action against POLCO in % ([15]; dosage 80 g/ha): 80%
- Post-emergence action against POLCO in % ([15]; dosage 320 g/ha): 80%
- Post-emergence action against SETVI in % ([8]; dosage 320 g/ha): 80%
- Post-emergence action against VERPE in % ([9]; 320 g/ha, VERPE): 80%
- Post-emergence action against VERPE in % ([9]; dosage 80 g/ha): 80%
- Post-emergence action against VIOTR in % ([10]; 80 g/ha): 80%
- Post-emergence action against VIOTR in % ([10]; 320 g/ha): 90%

- Post-emergence action against ORYSA in % [11, 16]: 0%
- Post-emergence action against ORYSA in % [11, 17]: 20%
- Post-emergence action against ZEAMX in % (crop plant compatibility) [12]: 10%
Structure (SMILES): C[C@@H](Oc1nn(-c2ncccc2F)c(-c2cncc(F)c2)c1C1CC1)C(=O)O [Example I-166]
- Post-emergence action against ALOMY in % ([1]; 80 g/ha): 90%
- Post-emergence action against ALOMY in % ([1]; 320 g/ha): 90%
- Post-emergence action against AVEFA in % ([2]; 80 g/ha): 90%
- Post-emergence action against AVEFA in % ([2]; 320 g/ha): 90%
- Post-emergence action against DIGSA in % ([3]; 80 g/ha): 90%
- Post-emergence action against DIGSA in % ([3]; 320 g/ha): 90%
- Post-emergence action against ECHCG in % ([4]; dosage 80 g/ha): 80%
- Post-emergence action against ECHCG in % ([4]; dosage 320 g/ha): 80%
- Post-emergence action against LOLRI in % ([5]; dosage 80 g/ha): 80%
- Post-emergence action against LOLRI in % ([5]; dosage 320 g/ha): 90%
- Post-emergence action against MATIN in % ([6]; dosage 80 g/ha): 80%
- Post-emergence action against MATIN in % ([6]; dosage 320 g/ha): 90%
- Post-emergence action against PHBPU in % ([7]; dosage 80 g/ha): 80%
- Post-emergence action against PHBPU in % ([7]; dosage 320 g/ha): 90%
- Post-emergence action against POLCO in % ([15]; dosage 80 g/ha): 80%
- Post-emergence action against POLCO in % ([15]; dosage 320 g/ha): 80%
- Post-emergence action against SETVI in % ([8]; dosage 80 g/ha): 90%
- Post-emergence action against SETVI in % ([8]; dosage 320 g/ha): 90%
- Post-emergence action against VERPE in % ([9]; 320 g/ha, VERPE): 80%
- Post-emergence action against VERPE in % ([9]; dosage 80 g/ha): 80%
- Post-emergence action against VIOTR in % ([10]; 80 g/ha): 80%
- Post-emergence action against VIOTR in % ([10]; 320 g/ha): 80%

The next lines start with the compound.

Structure (SMILES): O=C(COc1nn(-c2ncccc2F)c(-c2ccc(F)nc2)c1C1CC1)OCC1COC1 [Example I-264]
- Post-emergence action against ALOMY in % ([1]; 320 g/ha): 90%
- Post-emergence action against AVEFA in % ([2]; 80 g/ha): 80%
- Post-emergence action against AVEFA in % ([2]; 320 g/ha): 90%
- Post-emergence action against DIGSA in % ([3]; 80 g/ha): 80%
- Post-emergence action against DIGSA in % ([3]; 320 g/ha): 80%
- Post-emergence action against ECHCG in % ([4]; dosage 80 g/ha): 90%
- Post-emergence action against ECHCG in % ([4]; dosage 320 g/ha): 90%
- Post-emergence action against LOLRI in % ([5]; dosage 80 g/ha): 90%
- Post-emergence action against LOLRI in % ([5]; dosage 320 g/ha): 90%
- Post-emergence action against MATIN in % ([6]; dosage 320 g/ha): 80%
- Post-emergence action against PHBPU in % ([7]; dosage 80 g/ha): 80%
- Post-emergence action against PHBPU in % ([7]; dosage 320 g/ha): 80%
- Post-emergence action against SETVI in % ([8]; dosage 80 g/ha): 90%
- Post-emergence action against SETVI in % ([8]; dosage 320 g/ha): 90%
- Post-emergence action against VERPE in % ([9]; 320 g/ha, VERPE): 90%
- Post-emergence action against VERPE in % ([9]; dosage 80 g/ha): 80%
- Post-emergence action against VIOTR in % ([10]; 80 g/ha): 90%
- Post-emergence action against VIOTR in % ([10]; 320 g/ha): 90%
- Post-emergence action against ORYSA in % [11, 16]: 0%
- Post-emergence action against ORYSA in % [11, 17]: 10%
- Post-emergence action against ZEAMX in % (crop plant compatibility) [12]: 10%
- Post-emergence action against ZEAMX in % ([12]; 80 g/ha): 20%

Structure (SMILES): COC(=O)C(C)COC(=O)[C@@H](C)Oc1nn(-c2ccccn2)c(-c2ccc(F)nc2)c1Cl (stereo partly drawn) [Example I-267]
- Post-emergence action against ABUTH in % ([13]; 80 g/ha): 80%
- Post-emergence action against ABUTH in % ([13]; 320 g/ha): 90%
- Post-emergence action against ALOMY in % ([1]; 320 g/ha): 90%
- Post-emergence action against AMARE in % ([14]; 80 g/ha, visual rating about 3 weeks after treatment vs untreated controls (100% = plants have died, 0% = like control plants)): 80%
- Post-emergence action against AMARE in % ([14]; 320 g/ha, visual rating about 3 weeks after treatment): 80%
- Post-emergence action against AVEFA in % ([2]; 80 g/ha): 90%
- Post-emergence action against AVEFA in % ([2]; 320 g/ha): 90%
- Post-emergence action against DIGSA in % ([3]; 320 g/ha): 90%
- Post-emergence action against ECHCG in % ([4]; dosage 320 g/ha): 90%
- Post-emergence action against LOLRI in % ([5]; dosage 80 g/ha): 90%
- Post-emergence action against LOLRI in % ([5]; dosage 320 g/ha): 100%
- Post-emergence action against PHBPU in % ([7]; dosage 320 g/ha): 90%
- Post-emergence action against POLCO in % ([15]; dosage 80 g/ha): 80%
- Post-emergence action against POLCO in % ([15]; dosage 320 g/ha): 80%
- Post-emergence action against SETVI in % ([8]; dosage 80 g/ha): 90%
- Post-emergence action against SETVI in % ([8]; dosage 320 g/ha): 90%
- Post-emergence action against VERPE in % ([9]; 320 g/ha, VERPE): 90%
- Post-emergence action against VERPE in % ([9]; dosage 80 g/ha): 90%
- Post-emergence action against VIOTR in % ([10]; 80 g/ha): 90%
- Post-emergence action against VIOTR in % ([10]; 320 g/ha): 90%
- Post-emergence action against ZEAMX in % (crop plant compatibility) [12]: 0%
- Post-emergence action against ZEAMX in % ([12]; 80 g/ha): 20%

Structure (SMILES): COC(=O)[C@@H](C)Oc1nn(-c2ccccn2)c(-c2ccc(F)nc2)c1Br [Example I-252]
- Post-emergence action against ALOMY in % ([1]; 80 g/ha): 80%
- Post-emergence action against ALOMY in % ([1]; 320 g/ha): 90%
- Post-emergence action against AVEFA in % ([2]; 80 g/ha): 80%
- Post-emergence action against AVEFA in % ([2]; 320 g/ha): 80%
- Post-emergence action against DIGSA in % ([3]; 80 g/ha): 90%
- Post-emergence action against DIGSA in % ([3]; 320 g/ha): 90%
- Post-emergence action against ECHCG in % ([4]; dosage 80 g/ha): 80%
- Post-emergence action against ECHCG in % ([4]; dosage 320 g/ha): 90%
- Post-emergence action against LOLRI in % ([5]; dosage 80 g/ha): 80%
- Post-emergence action against LOLRI in % ([5]; dosage 320 g/ha): 80%
- Post-emergence action against MATIN in % ([6]; dosage 320 g/ha): 80%
- Post-emergence action against PHBPU in % ([7]; dosage 320 g/ha): 90%
- Post-emergence action against POLCO in % ([15]; dosage 320 g/ha): 80%
- Post-emergence action against SETVI in % ([8]; dosage 80 g/ha): 80%
- Post-emergence action against SETVI in % ([8]; dosage 320 g/ha): 80%
- Post-emergence action against VERPE in % ([9]; 320 g/ha, VERPE): 80%
- Post-emergence action against VERPE in % ([9]; dosage 80 g/ha): 80%
- Post-emergence action against VIOTR in % ([10]; 320 g/ha): 80%
- Post-emergence action against ORYSA in % [11, 16]: 10%
- Post-emergence action against ZEAMX in % (crop plant compatibility) [12]: 10%
